pIC50: −log10 of the molar value.

In one assay the target is T1, GPR6 (Homo sapiens, UniProt P46095).
T1 construct: expressed in transfected cells; host or cells: CHO cells
Description: GPR6 antagonist functional cAMP assay (LANCE Ultra cAMP TR-FRET, CHO cells stably expressing GPR6). Type of assay: cell-based. The conditions noted are these: CHO cells stably expressing GPR6, cAMP assay (Example 24). Put shortly: (§1)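 Compounds, at 0.1% final DMSO, acted on the cells for 45 minutes at 37 °C in the presence of the phosphodiesterase inhibitor Ro 20-1724 (150 μM). After lysis and detection, plates were shaken 1 h at room temperature and emission at 665 nm was recorded. Normalized data gave IC50 values.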
(In general: Cyclic AMP is a second messenger, typically raised through Gs and lowered through Gi signalling.)

Another assay has as its target T2, GPR3 (Homo sapiens, UniProt P46089).
T2 construct: expressed in transfected cells; host or cells: CHO cells
Description: GPR3 antagonist functional cAMP assay (LANCE Ultra cAMP TR-FRET, CHO cells stably expressing GPR3). Format: cell-based. Conditions: CHO cells stably expressing GPR3, cAMP assay (Example 24). Put shortly: as §1

T2 sequence (P46089 whole entry, species assumed): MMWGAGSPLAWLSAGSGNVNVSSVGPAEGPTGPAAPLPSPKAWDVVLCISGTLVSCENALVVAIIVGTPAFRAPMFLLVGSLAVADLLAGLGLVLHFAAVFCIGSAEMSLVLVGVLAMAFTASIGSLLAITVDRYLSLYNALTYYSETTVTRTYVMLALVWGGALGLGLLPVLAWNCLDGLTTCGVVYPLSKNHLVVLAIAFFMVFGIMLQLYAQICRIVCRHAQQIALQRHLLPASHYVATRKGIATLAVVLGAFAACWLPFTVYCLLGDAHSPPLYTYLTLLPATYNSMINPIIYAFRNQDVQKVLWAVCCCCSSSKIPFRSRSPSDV
T1 sequence (P46095 whole entry): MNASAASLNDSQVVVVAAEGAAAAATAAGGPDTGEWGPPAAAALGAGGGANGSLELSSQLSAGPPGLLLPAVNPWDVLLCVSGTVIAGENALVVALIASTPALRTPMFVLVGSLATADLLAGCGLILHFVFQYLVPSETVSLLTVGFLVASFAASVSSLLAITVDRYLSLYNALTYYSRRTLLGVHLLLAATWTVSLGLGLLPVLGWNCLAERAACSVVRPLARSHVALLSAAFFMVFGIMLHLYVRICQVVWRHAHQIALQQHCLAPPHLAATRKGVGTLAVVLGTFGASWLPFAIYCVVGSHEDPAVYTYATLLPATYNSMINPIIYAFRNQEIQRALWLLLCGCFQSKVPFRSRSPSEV

As for `Nc1cc2nc(N3CCC(Oc4ccc(F)cc4F)CC3)c(-c3cnn(C(F)F)c3)nc2cn1` [Compound 460, 3-[1-(difluoromethyl)-1H-pyrazol-4-yl]-2-[4-(2,4-difluorophenoxy)piperidin-1-yl]pyrido[3,4-b]pyrazin-7-amine], the pIC50 (in general, −log10 of the IC50, conventionally taken in molar units) is 6.00 to 7.00 against GPR6 and 4.52 to 6.00 against GPR3.
Turning to `Cn1cc(-c2nc3cnc(CC(C)(C)O)cc3nc2N2CCC(Oc3ccc(F)cc3F)CC2)cn1` [Compound 461, 1-(2-(4-(2,4-difluorophenoxy)piperidin-1-yl)-3-(1-methyl-1H-pyrazol-4-yl)pyrido[3,4-b]pyrazin-7-yl)-2-methylpropan-2-ol], the pIC50 on GPR6 was 6.00 to 7.00; at GPR3, 4.52 to 6.00.
For `Nc1cc2nc(N3CCC(Oc4ccc(F)cc4F)CC3)c(-c3cnn(C4CC4)c3)nc2cn1` [Compound 462, 3-(1-cyclopropyl-1H-pyrazol-4-yl)-2-[4-(2,4-difluorophenoxy)piperidin-1-yl]pyrido[3,4-b]pyrazin-7-amine], the values for the pIC50 against GPR6 and at GPR3 were 6.00 to 7.00 and 4.52 to 6.00, respectively.
On to `COCC1CC1c1nc2c(nc1N1CCC(Oc3ccc(F)cc3F)CC1)CCN(C(C)=O)C2` (stereo not shown) [Compound 463, 1-(2-(4-(2,4-difluorophenoxy)piperidin-1-yl)-3-(2-(methoxymethyl)cyclopropyl)-7,8-dihydropyrido[3,4-b]pyrazin-6(5H)-yl)ethan-1-one], for which the pIC50 is 6.00 to 7.00 against GPR6 and 4.52 to 6.00 against GPR3.
For `Cn1cc(-c2nc3cnc(C4CNC(=O)CO4)cc3nc2N2CCC(Oc3ccc(F)cc3F)CC2)cn1` (stereo not shown) [Compound 464, 6-(2-(4-(2,4-difluorophenoxy)piperidin-1-yl)-3-(1-methyl-1H-pyrazol-4-yl)pyrido[3,4-b]pyrazin-7-yl)morpholin-3-one], the pIC50 on GPR6 was 6.00 to 7.00; against GPR3, 4.52 to 6.00.
As for `CC(=O)N1CCc2nc(N3CCC(Oc4ccc(F)cc4F)CC3)c(-c3cncc(N)n3)nc2C1` [Compound 465, 1-[3-(6-aminopyrazin-2-yl)-2-[4-(2,4-difluorophenoxy)piperidin-1-yl]-5H,6H,7H,8H-pyrido[3,4-b]pyrazin-6-yl]ethan-1-one], the pIC50 at GPR6 was 6.00 to 7.00; against GPR3, 4.52 to 6.00.
Consider `CC(=O)N1CCc2nc(N3CCC(Oc4ccc(F)cc4F)CC3)c(-c3ccnc(Cl)n3)nc2C1` [Compound 466, 1-[3-(2-chloropyrimidin-4-yl)-2-[4-(2,4-difluorophenoxy)piperidin-1-yl]-5H,6H,7H,8H-pyrido[3,4-b]pyrazin-6-yl]ethan-1-one], for which the negative logarithm of the IC50 (pIC50) against GPR6 and against GPR3 was 4.52 to 6.00 in each case.
For the molecule `CC(O)c1cc2nc(N3CCC(Oc4ccc(F)cc4F)CC3)c(-c3cnn(C)c3)nc2cn1` (stereo not shown) [Compound 467, 1-{2-[4-(2,4-difluorophenoxy)piperidin-1-yl]-3-(1-methyl-1H-pyrazol-4-yl)pyrido[3,4-b]pyrazin-7-yl}ethan-1-ol], the pIC50 against GPR6 and against GPR3 was 4.52 to 6.00 throughout.
As for `Cn1cc(-c2nc3cnc(CCO)cc3nc2N2CCC(Oc3ccc(F)cc3F)CC2)cn1` [Compound 468, 2-{2-[4-(2,4-difluorophenoxy)piperidin-1-yl]-3-(1-methyl-1H-pyrazol-4-yl)pyrido[3,4-b]pyrazin-7-yl}ethan-1-ol], the pIC50 at GPR6 is 6.00 to 7.00; on GPR3, 4.52 to 6.00.
Consider `CC(C)(O)C(O)c1cc2nc(N3CCC(Oc4ccc(F)cc4F)CC3)c(-c3cnn(C4CC4)c3)nc2cn1` (stereo not shown) [Compound 469, 1-[3-(1-cyclopropyl-1H-pyrazol-4-yl)-2-[4-(2,4-difluorophenoxy)piperidin-1-yl]pyrido[3,4-b]pyrazin-7-yl]-2-methylpropane-1,2-diol], for which the pIC50 is 6.00 to 7.00 against GPR6 and 4.52 to 6.00 against GPR3.
Taken in the same sequence, the figures for `Cn1cc(-c2nc3cnc(C(O)CO)cc3nc2N2CCC(Oc3ccc(F)cc3F)CC2)cn1` (stereo not shown) [Compound 470, 1-(2-(4-(2,4-difluorophenoxy)piperidin-1-yl)-3-(1-methyl-1H-pyrazol-4-yl)pyrido[3,4-b]pyrazin-7-yl)ethane-1,2-diol] were 4.52 to 6.00 and 4.52 to 6.00.

The values above are taken from patent US20260042755A1, “GPR6 INVERSE AGONISTS” (MapLight Therapeutics, Inc., priority 2022, published 2026).
